According to patent US7033829B2, “Method to inhibit cell growth using oligonucleotides” (Trustees of Boston University, priority 2000, dated 2006):
Oligonucleotides are written 5' to 3', each unit as a sugar letter and its base; * is a phosphorothioate linkage, no mark a phosphodiester; rarer units and linkages stand in square brackets, end groups in braces. Plain capitals give the bases only. d = 2'-deoxy (DNA); {P} = phosphate

Tests used:
Type in all cases: cell-based
[1] = tested on: Cloudman S91 mouse melanoma cells; assay: Melanin content of Cloudman S91 melanoma cells; conditions: for melanin content relative to control diluent-treated cells: 10 μM, five days, FIG. 17; for pigment content increase, of control levels: 100 μM, three experiments; for pigment content increase, of control levels / melanin content, of control cells / increase in melanin / reduction of melanogenic activity by removal of the 5′ phosphate: 5 days; for melanin content, of control cells: FIG. 12; for increase in melanin: FIG. 15; for reduction of melanogenic activity by removal of the 5′ phosphate: FIG. 16; for melanogenesis: 100 μM dinucleotides or 40 μM 11mers, 6 days
Procedure: The induction of melanogenesis in Cloudman S91 mouse melanoma cells by a five-nucleotide oligomer CATAC (SEQ ID NO: 6) and a nine-nucleotide oligomer, GAGTATGAG (SEQ ID NO: 1) was examined. Duplicates of Cloudman S91 murine melanoma cells were incubated with either 100 μM oligo or an equal volume of diluent (H2O) for 5 days. The cells were then collected, counted, and an equal number of cells were pelleted for melanin analysis. […] Variations of this oligonucleotide were evaluated: a scrambled 9-mer (TAGGAGGAT; SEQ ID NO: 2) and two truncated versions, a 7-mer (AGTATGA; SEQ ID NO: 3) and second 5-mer (GTATG; SEQ ID NO: 4). […] The truncated versions (SEQ ID NOs: 3 and 4) were also active, inducing 640% and 670% increases, respectively.
Cultures of Cloudman S91 murine melanoma cells were treated for 5 days with SEQ ID NO: 1, SEQ ID NO: 6, pTpT as a positive control, or an equal volume of diluent as a negative control. […] SEQ ID NO: 6 produced a slight increase in melanin, to 165+/−77% of control levels. SEQ ID NO: 1 stimulated melanin content to an average of 600+/−260% of control levels.
pTpT, shown previously to stimulate pigmentation in these cells, was used as a reference treatment, and diluent alone was used as a negative control. After five days of treatment with the oligonucleotides, the cells were collected, counted, and an equal number of cells were pelleted for melanin analysis. […] SEQ ID NO: 5, representing the telomere over-hang sequence, also at 10 μM, increased the melanin level to 10 times that of control cells.
S91 cells were cultured in the presence of diluent alone, pTpT p9mer (SEQ ID NO: 1), p7mer (AGTATGA; SEQ ID NO: 7) or p5mer #2 (SEQ ID NO: 4). […] Both SEQ ID NOS: 4 and 7 stimulated a 7–8 fold increase in melanin.
S91 cells were cultured for 5 days in the presence of the thymidine dinucleotides or SEQ ID NO: 1 with or without a 5′ phosphate or diluent alone as a negative control.
Cultures of S91 mouse melanoma cells (100,000 cells/38 cm^2) were treated with 100 μM pTpT or phosphorothioate pTpT (pTspT) (FIG. 22) or 40 μM 11mer-1 or the phosphorothioate 11mer-1 (11mer-1-S) (FIG. 23) for 6 days and were then collected, counted and assayed for melanin content.
Duplicate cultures of S91 cells (100,000 cells/39 cm^2) were either sham-irradiated or irradiated with 5 mJ/cm^2 solar-simulated light from a 1 kW xenon arc solar-simulator (XMN 1000-21, Optical Radiation, Azuza, Calif.) metered at […] using a research radiometer (model IL1700A, International Light, Newburyport, Mass.). Two sham-irradiated plates were then supplemented with 100 μM pTspT and two irradiated cultures were similarly treated with pTspT. After one week, cells were collected, counted and analyzed for melanin content by dissolving the cell pellets in 1 N NaOH and measuring the optical density at […]. […] However, this response was blocked by the addition of pTspT (FIG. 24). In addition, the constitutive pigmentation of these cells was reduced by the pTspT in the sham-irradiated cultures, similar to the data presented in FIGS. 22 and 23.

[2] = tested on: normal neonatal human fibroblasts; assay: FACS analysis of normal neonatal fibroblasts; conditions: 40 μM; for S-phase checkpoint: within 24 hours
Procedure: The averages and standard deviations presented in FIGS. 32A–32D were determined from triplicate samples. One representative experiment of three is presented. […] Control 11-base oligonucleotides complementary (11mer-2) or unrelated (11mer-3) to the telomere overhang had no effect on the cells.

[3] = tested on: Human squamous carcinoma cell line SCC12F cells; assay: Cell growth / cell yield of SCC12F cells (Coulter counter); conditions: for reduction of cell number: after 2 days, FIG. 14
Procedure: Human squamous carcinoma cell line SCC12F cells were maintained in primary keratinocyte medium (300 ml DME, 100 ml F-12 nutrient supplement, 50 ml 10× adenine, 50 ml fetal bovine serum, 5 ml penicillin/streptomycin stock, and 0.5 ml of 10 μg/ml epidermal growth factor and hydrocortisone to final concentration of 1.4 μg/ml) and dosed with either water (diluent), 100 μM pTpT (T2, Midland Certified Reagent Company, Midland, Tex.) or 100 μM pdApdA (A2). Cells were harvested before dosing (day 0), and 1, 3, 4, and 5 days after dosage, and were counted by Coulter™ counter. After harvesting, the cells were processed for total RNA isolation and were analyzed by Northern blot. Addition of a control deoxyadenine dinucleotide (pdApdA), a compound very similar to pTpT but not readily dimerized by UV irradiation, and therefore rarely excised during the course of UV-induced DNA repair, has no effect.
In a second experiment, SCC12F cells were cultured as described above. Two or three days after seeding, the preconfluent cultures were given fresh medium supplemented with either 100 μM T2 or diluent as a control. Cells were collected daily by trypsinization and counted by Coulter™ counter. The cell yield in cultures treated with T2 was reduced by […] compared to that of paired control cultures after five days (FIG. 2). This corresponds to 2.3 population doublings in this time for control cells, compared with 1 doubling for T2-treated cells.
pTpT was previously found to inhibit cell cycle progression, at least in part through activation of p53 and subsequent upregulation of the cyclin dependent kinase inhibitor p21. Cultures of the human keratinocyte line SCC12F were treated with pTpT, SEQ ID NO: 1, SEQ ID NO: 6 or diluent alone as a negative control, collected and counted 48 hours later and processed for northern blot analysis of p21 mRNA expression. […] Thus, the sequences of the present invention activate p53 and inhibit cell proliferation similar to the effect of pTpT.
Exposure of keratinocytes to UVB irradiation affects the expression of genes involved in cell cycle arrest, DNA repair and cytokine production. Single-stranded oligonucleotides sharing sequence homology with the telomere 3′ overhang, when introduced into cells, mimic these UV effects. To identify other genes that may be similarly modulated, cells of keratinocyte origin (SCC12F; a human epidermal squamous cell carcinoma line provided by Dr. James Rheinwald of Harvard University) were exposed to solar simulated irradiation (SSR) (20 mJ/cm^2, measured at 285±5 nm), to an 11-base oligonucleotide (pGTTAGGGTTAG; SEQ ID NO:5) homologous to the telomere overhang (T-oligo), or to a complementary sequence as control [pCTAACCCTAAC; (SEQ ID NO:9) control oligonucleotide]. […] These are mitochondrial-transcribed genes whose encoded proteins participate in cellular respiration.

Substance	melanin content relative to control diluent-treated cells [1]	S-phase checkpoint [2]	reduction of cell number [3]	pigment content increase, of control levels [1]	melanin content, of control cells [1]	increase in melanin [1]	reduction of melanogenic activity by removal of the 5′ phosphate [1]	melanogenesis [1]	further results
pGATCGATCGAT (DNA {P}-dGdAdTdCdGdAdTdCdGdAdT) [SEQ ID NO: 10, reference compound]	did not produce significant change in pigment content	had no effect	–	–	–	–	–	–	–
pGAGTATGAG (DNA, 5' {P}, backbone not given here) [SEQ ID NO: 1]	–	–	approximately 50%	418%±267%	600+/−260%	a larger increase	60%	–	increase in melanin content ([1]; variations of the 9-mer, cells not given): 800%
11mer-1-S: phosphorothioate 11mer-1 (dG*dT*dT*dA*dG*dG*dG*dT*dT*dA*dG; further chemistry not fully specified)	–	–	–	–	–	–	–	did not	constitutive pigmentation ([1]; 100 μM pTspT or 40 μM 11mer-1-S, 6 days or one week): reduced the constitutive pigmentation
pGTTAGGGTTAG (DNA {P}-dGdTdTdAdGdGdGdTdTdAdG) [SEQ ID NO: 5]	10 times that of control	activation of an S-phase checkpoint	–	–	–	–	–	stimulated melanogenesis	cellular proliferation ([3]; Example 27): substantially inhibited cellular proliferation; apoptotic cells ([2]; up to 72 hours): no apoptotic cells were detected
pCTAACCCTAAC (DNA, 5' {P}, backbone not given here) [SEQ ID NO: 9, reference compound]	did not produce significant change in pigment content	had no effect	–	–	–	–	–	–	–
thymidine dinucleotide [pTpT]	3 times that of control	–	40%	155%±60%	255+/−60%	moderate increase in melanin content	80%	stimulated melanogenesis	cell yield reduced compared to paired control cultures ([3]; 100 μM, after five days): 75%; cell growth rate ([3]; 100 μM, days 1, 3, 4, 5 after dosage): marked decreases in cell growth rate; population doublings ([3]; 100 μM, five days (control 2.3)): 1
